# Source: patent publication US8198456B2, “Dihydropyridine derivatives as useful as protein kinase inhibitors” (Bayer Intellectual Property GmbH, priority 2006, dated 2012)
# Molecular target: T1, recombinant human c-MET kinase enzyme domain (Homo sapiens, UniProt P08581)
# T1 construct: Recombinant c-Met kinase domain (amino acids 960-1390); His (N); made in house; host or cells: baculovirus expression system (insect cells; SF21 is named only for the alternative format)
# Experiment: c-MET receptor tyrosine kinase Homogeneous Time Resolved Fluorescence assay (HTRF)
# Assay type: biochemical
# Details: Biological Example 1 and/or Biological Example 2
# Description: Recombinant c-Met kinase domain (amino acids 960-1390) was produced in a baculovirus expression vector as an N-terminal His-tagged fusion protein and purified on a NiNTA column. The resulting purified enzyme was then used in the following c-Met Homogeneous Time Resolved Fluorescence assay (HTRF) to find compounds of the invention and to perform initial activity determinations. Specifically, this assay measures the ability of compounds of the invention to inhibit the phosphorylation of a randomly synthesized, biotinylated heterocopolymeric polypeptide composed of glutamic acid and tyrosine, with an average length of 100 aa. The assay analyzes the amount of phosphorylated polypeptide produced.
# The enzymatic phosphorylation of the biotinylated heterocopolymeric polypeptide was performed in a black 384-well plate at ambient temperature in a reaction mixture containing 50 mM HEPES (pH 7.4), 5 mM MgCl2, 5 mM MnCl2, 0.01% Tween-20, and 2 mM DTT, […] recombinant human c-MET kinase enzyme domain, 37 nM biotinylated heterocopolymeric polypeptide composed of glutamic acid and tyrosine, 20 μM ATP, 1% DMSO in the absence or presence of a compound of the invention. The reaction was stopped after a 20-minute incubation by the addition of 80 mM EDTA.
# The formation of phosphorylated heterocopolymeric, biotinylated polypeptide was quantified with the HTRF assay technology using an anti-phosphotyrosine antibody, PT66, conjugated to europium cryptate, mixed with a streptavidin-XL665 conjugate. Reduced or inhibited phosphorylation of the heterocopolymeric, biotinylated polypeptide prevents the anti-phosphotyrosine antibody from binding to the peptide, resulting in a loss of energy transfer to the streptavidin-XL665 conjugate.
# Following the 384-well enzymatic phosphorylation reaction outlined above, the detection of phosphorylated heterocopolymeric, biotinylated polypeptide was performed by dilution of the stopped reaction mixture 2-fold with 50 mM HEPES (pH 7.0), 500 mM KF, 0.1% BSA, streptavidin-XL665 (20 nM), and anti-phosphotyrosine antibody PT66-crypate conjugate (6.4 ng/well) and incubation for four hours at ambient temperature. Plates were read in an Envision plate reader (PerkinElmer Life and Analytical Sciences, Inc., MA) simultaneously at 620 nm and 665 nm to obtain signal ratios of 665 nm/620 nm. Results of energy transfer were expressed as signal ratios of 665 nm/620 nm. Negative controls were samples without recombinant c-MET or c-MET treated with 100 mM EDTA.
# For determination of IC50 values of particular compounds of the invention, eight serially diluted compound concentrations (at 1:3.16 dilution) were used in the assay. Controls without a compound of the invention or with a reference compound were run in parallel in the same assay plate.
# T1 sequence (P08581 960-1390): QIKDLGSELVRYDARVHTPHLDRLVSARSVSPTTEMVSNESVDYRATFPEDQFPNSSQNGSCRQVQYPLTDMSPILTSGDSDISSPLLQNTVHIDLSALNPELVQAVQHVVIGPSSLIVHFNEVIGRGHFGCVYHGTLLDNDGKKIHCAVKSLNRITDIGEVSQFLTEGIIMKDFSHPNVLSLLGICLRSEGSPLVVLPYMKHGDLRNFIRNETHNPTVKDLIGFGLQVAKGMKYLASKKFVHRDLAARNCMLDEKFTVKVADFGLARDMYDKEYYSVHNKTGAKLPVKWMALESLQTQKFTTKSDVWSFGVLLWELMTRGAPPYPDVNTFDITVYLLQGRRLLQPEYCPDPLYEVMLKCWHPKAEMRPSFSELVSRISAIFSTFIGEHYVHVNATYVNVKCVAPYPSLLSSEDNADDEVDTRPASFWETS
row,SMILES,IC50 [nM]
1,"CC1=C(C#N)C(c2cccc(C(N)=O)c2)C(C#N)=C(C)N1 [compound 17, 3-(3,5-dicyano-1,4-dihydro-2,6-dimethyl-4-pyridinyl)-benzamide]",500 to 2500
2,"CC1=C(C#N)C(c2cccc(C(=O)Nc3cccc(C)n3)c2)C(C#N)=C(C)N1 [compound 62, 3-(3,5-dicyano-1,4-dihydro-2,6-dimethyl-4-pyridinyl)-N-(6-methyl-2-pyridinyl)-benzamide]",500 to 2500
3,"CC1=C(C#N)C(c2ccc3[nH]nc(NCC4CCN(C(=O)OC(C)(C)C)CC4)c3c2)C(C#N)=C(C)N1 [compound 131, 4-[[[5-(3,5-dicyano-1,4-dihydro-2,6-dimethyl-4-pyridinyl)-1H-indazol-3-yl]-amino]methyl]-1-piperidinecarboxylic acid 1,1-dimethylethyl ester]",500 to 2500
4,"CC1=C(C#N)C(c2ccc3[nH]nc(NCCO)c3c2)C(C#N)=C(C)N1 [compound 118, 1,4-dihydro-4-[3-[(2-hydroxyethyl)amino]-1H-indazol-5-yl]-2,6-dimethyl-3,5-pyridinedicarbonitrile]",< 100
5,"CC1=C(C#N)C(c2ccc3[nH]nc(O)c3c2)C(C#N)=C(C)N1 [compound 176, 1,4-dihydro-4-(3-hydroxy-1H-indazol-5-yl)-2,6-dimethyl-3,5-pyridinedicarbonitrile]",500 to 2500
6,"CC1=C(C#N)C(c2ccc3[nH]nc(N)c3c2)C(C#N)=C(C)N1 [compound 82, 4-(3-amino-1H-indazol-5-yl)-1,4-dihydro-2,6-dimethyl-3,5-pyridinedicarbonitrile]",< 100
7,"CC1=C(C#N)C(c2cccc(C(=O)NCCC3CCNCC3)c2)C(C#N)=C(C)N1 [compound 26, 3-(3,5-dicyano-1,4-dihydro-2,6-dimethyl-4-pyridinyl)-N-[2-(4-piperidinyl)ethyl]-benzamide]",100 to 500
8,"CC1=C(C#N)C(c2ccc3[nH]nc(C(=O)O)c3c2)C(C#N)=C(C)N1 [compound 86, 5-(3,5-dicyano-1,4-dihydro-2,6-dimethyl-4-pyridinyl)-1H-indazole-3-carboxylic acid]",< 100
9,"CC1=C(C#N)C(c2ccc3[nH]nc(-c4cnn(C5CCNCC5)c4)c3c2)C(C#N)=C(C)N1 [compound 157, 1,4-dihydro-2,6-dimethyl-4-[3-[1-(4-piperidinyl)-1H-pyrazol-4-yl]-1H-indazol-5-yl]-3,5-pyridinedicarbonitrile]",< 100
10,"CC1=C(C#N)C(c2ccc3c(c2)c(N)nn3C(=O)c2ccccc2)C(C#N)=C(C)N1 [compound 95, 4-(3-amino-1-benzoyl-1H-indazol-5-yl)-1,4-dihydro-2,6-dimethyl-3,5-pyridinedicarbonitrile]",< 100
11,"CC(=O)c1n[nH]c2ccc(C3C(C#N)=C(C)NC(C)=C3C#N)cc12 [compound 158, 4-(3-acetyl-1H-indazol-5-yl)-1,4-dihydro-2,6-dimethyl-3,5-pyridinedicarbonitrile]",< 100
12,"CC1=C(C#N)C(c2ccc3[nH]nc(Cl)c3c2)C(C#N)=C(C)N1CCO [compound 297, 4-(3-chloro-1H-indazol-5-yl)-1,4-dihydro-1-(2-hydroxyethyl)-2,6-dimethyl-3,5-pyridinedicarbonitrile]",< 100
13,"CC1=C(C#N)C(c2cnc3[nH]ncc3c2)C(C#N)=C(C)N1 [compound 204, 1,4-dihydro-2,6-dimethyl-4-(1H-pyrazolo[3,4-b]pyridin-5-yl)-3,5-pyridinedicarbonitrile]",< 100
14,"CC1=C(C#N)C(c2ccc3[nH]nc(N)c3c2)C(C#N)=C(C)N1Cc1ccccc1 [compound 293, 4-(3-amino-1H-indazol-5-yl)-1,4-dihydro-2,6-dimethyl-1-(phenylmethyl)-3,5-pyridinedicarbonitrile]",< 100
15,"CC1=C(C#N)C(c2ccc3[nH]nc(NCC4CCNCC4)c3c2)C(C#N)=C(C)N1 [compound 133, 1,4-dihydro-2,6-dimethyl-4-[3-[(4-piperidinylmethyl)amino]-1H-indazol-5-yl]-3,5-pyridinedicarbonitrile]",< 100
16,"CC1=C(C#N)C(c2cccc(NC(=O)CBr)c2)C(C#N)=C(C)N1 [compound 47, 2-bromo-N-[3-(3,5-dicyano-1,4-dihydro-2,6-dimethyl-4-pyridinyl)phenyl]-acetamide]",500 to 2500
17,"CCOCCCNC(=O)c1cccc(C2C(C#N)=C(C)NC(C)=C2C#N)c1 [compound 45, 3-(3,5-dicyano-1,4-dihydro-2,6-dimethyl-4-pyridinyl)-N-(3-ethoxypropyl)-benzamide]",500 to 2500
18,"CC1=C(C#N)C(c2cccc(C(=O)Nc3ccc(CN(C)C)cn3)c2)C(C#N)=C(C)N1 [compound 76, 3-(3,5-dicyano-1,4-dihydro-2,6-dimethyl-4-pyridinyl)-N-[5-[(dimethylamino)methyl]-2-pyridinyl]-benzamide]",100 to 500
19,"CC1=C(C#N)C(c2ccc3[nH]nc(CO)c3c2)C(C#N)=C(C)N1 [compound 144, 1,4-dihydro-4-[3-(hydroxymethyl)-1H-indazol-5-yl]-2,6-dimethyl-3,5-pyridinedicarbonitrile]",< 100
20,"CC1=C(C#N)C(c2ccc3[nH]nc(NCc4cccnc4)c3c2)C(C#N)=C(C)N1 [compound 120, 1,4-dihydro-2,6-dimethyl-4-[3-[(3-pyridinylmethyl)amino]-1H-indazol-5-yl]-3,5-pyridinedicarbonitrile]",< 100
21,"CC1=C(C#N)C(c2ccc3[nH]nc(NC(=O)c4ccccc4)c3c2)C(C#N)=C(C)N1 [compound 129, N-[5-(3,5-dicyano-1,4-dihydro-2,6-dimethyl-4-pyridinyl)-1H-indazol-3-yl]-benzamide]",< 100
22,"CC1=C(C#N)C(c2cccc(C(=O)Nc3cccnc3)n2)C(C#N)=C(C)N1 [compound 190, 3′,5′-dicyano-1′,4′-dihydro-2′,6′-dimethyl-N-3-pyridinyl-[2,4′-bipyridine]-6-carboxamide]",100 to 500

# Further lines, results first:
row,IC50 [nM],SMILES
1,< 100,"CC1=C(C#N)C(c2ccc3[nH]nc(N)c3c2)C(C#N)=C(c2cc(C)oc2C)N1 (stereo not shown) [compound 281, 4-(3-amino-1H-indazol-5-yl)-2-(2,5-dimethyl-3-furanyl)-1,4-dihydro-6-methyl-3,5-pyridinedicarbonitrile]"
2,100 to 500,"COC(=O)c1cccc(C2C(C#N)=C(C)NC(c3cccc(N)c3)=C2C#N)c1 (stereo not shown) [compound 235, 3-[2-(3-aminophenyl)-3,5-dicyano-1,4-dihydro-6-methyl-4-pyridinyl]-benzoic acid, methyl ester]"
3,< 100,"CC1=C(C#N)C(c2ccc3[nH]nc(N4CCNCC4)c3c2)C(C#N)=C(C)N1 [compound 164, 1,4-dihydro-2,6-dimethyl-4-[3-(1-piperazinyl)-1H-indazol-5-yl]-3,5-pyridinedicarbonitrile]"
4,< 100,"CC1=C(C#N)C(c2ccc3[nH]nc(NCCN4CCOCC4)c3c2)C(C#N)=C(C)N1 [compound 307, 1,4-dihydro-2,6-dimethyl-4-[3-[[2-(4-morpholinyl)ethyl]amino]-1H-indazol-5-yl]-3,5-pyridinedicarbonitrile]"
5,< 100,"CC1=C(C#N)C(c2ccc3[nH]ncc3c2)C(C#N)=C(c2ccc(C(=O)NCCN3CCOCC3)cc2)N1 (stereo not shown) [compound 261, 4-[3,5-dicyano-1,4-dihydro-4-(1H-indazol-5-yl)-6-methyl-2-pyridinyl]-N-[2-(4-morpholinyl)ethyl]-benzamide]"
6,< 100,"CC1=C(C#N)C(c2ccc3[nH]ncc3c2)C(C#N)=C(C)N1 [compound 80, 1,4-dihydro-4-(1H-indazol-5-yl)-2,6-dimethyl-3,5-pyridinedicarbonitrile]"
7,< 100,"CC1=C(C#N)C(c2ccc3[nH]ncc3c2)C(C#N)=C(c2ccc(N3CCOCC3)c(F)c2)N1 (stereo not shown) [compound 272, 2-[3-fluoro-4-(4-morpholinyl)phenyl]-1,4-dihydro-4-(1H-indazol-5-yl)-6-methyl-3,5-pyridinedicarbonitrile]"
8,< 100,"CC1=C(C#N)C(c2ccc3[nH]ncc3c2)C(C#N)=C(c2ccnc(Cl)c2)N1 (stereo not shown) [compound 276, 2′-chloro-1,4-dihydro-4-(1H-indazol-5-yl)-6-methyl-[2,4′-bipyridine]-3,5-dicarbonitrile]"
9,< 100,"CC1=C(C#N)C(c2ccc3[nH]ncc3c2)C(C#N)=C(C)N1CCO [compound 292, 1,4-dihydro-1-(2-hydroxyethyl)-4-(1H-indazol-5-yl)-2,6-dimethyl-3,5-pyridinedicarbonitrile]"
